TGI and GI50 data for 13 molecules are collected here from PubChem BioAssay (NCI).

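Dose response: 5 concentrations. Exposure: 48 h. Format: 96-well plates. Endpoint: linear interpolation; highest concentration if not reached. GI50 = concentration required for 50% inhibition of growth. TGI: concentration producing complete growth inhibition.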 A value given as a limit tells only on which side of the number the result lay.

What all share (assay): inhibition of tumour cell growth, NCI panel, 48 h
Assay [1] deals with A498 renal.
Assay [2] relates to HOP-18 NSCLC.
For assay [3], the system named is LXFL 529 NSCLC.
In assay [4] the test system is SF-539 CNS.
Assay [5] has as its system SR leukemia.
Assay [6] relates to KM20L2 colon.
Assay [7] relates to HL-60(TB) leukemia.
Assay [8] relates to MCF7 breast.
Assay [9] deals with HOP-92 NSCLC.
The subject of assay [10] is MDA-MB-435.
In assay [11] the test system is PC-3 prostate.
Assay [12] has as its system XF 498 CNS.
Assay [13] relates to DMS 273 small cell lung.

For `COc1cc(O)c2c(c1)C(=O)c1cc(C)cc(O)c1C2=O`, the TGI in assay [1], in assay [2], in assay [3], in [4], in assay [5] and in [6] was more than 100 µM each time. In assay [7], the TGI is more than 100 µM.
As for `Cn1c(Sc2ccc(-c3cccnc3)n2C)ccc1-c1cccnc1`, the TGI in assay [1] stood at 47.6 µM; in [8] it was 45.3 µM; in assay [9] it was 28.1 µM; in assay [10], 29.1 µM; in assay [4], 41.8 µM; in assay [5], 9.79 µM. The results for the TGI in [11] and in assay [7] were 31 µM and 5.78 µM, respectively.
Consider `Cc1cc(=O)oc2c1cc(OCC(=O)OCCN1CCCCC1)c1occ(C)c12`, for which the TGI in assay [1], in assay [12], in assay [2], in assay [3], in assay [9] and in [4] was more than 100 µM in each case. In addition, the TGI in [13], in [6] and in assay [7] was more than 100 µM throughout.
As to `NC(=O)Nc1cc(O)ccc1N=Nc1ccc(S(=O)(=O)Nc2ccccn2)cc1`, the TGI in assay [1], in assay [12], in assay [2], in assay [3], in assay [9] and in [4] was more than 100 µM each time. In addition, the TGI in [13], in [6] and in assay [7] was more than 100 µM in each case.
As to `CC(CO)(CO)Nc1ncnc2ccccc12`, the TGI in [1], in assay [9], in assay [10], in assay [5] and in assay [11] was more than 100 µM each time.
For `CCOC(=O)NC`, the TGI in assay [1], in assay [8], in [9], in assay [10], in [4] and in assay [5] was more than 100 µM throughout. Besides, the TGI in [11] and in [7] was more than 100 µM in each case.
In the case of `Nc1nnc(N)n1NC(=O)C(=O)Nc1ccc([N+](=O)[O-])cc1`, the TGI in [1], in assay [12], in assay [2], in assay [9], in [4] and in [5] was more than 100 µM throughout. Moreover, the TGI in assay [13], in [6] and in assay [7] was more than 100 µM each time.
On to `c1ccc2sc(SCN(C3CCCCC3)C3CCCCC3)nc2c1`, for which the TGI in assay [1], in [9], in assay [10], in assay [5] and in [11] was more than 100 µM throughout.
Take `O=C(O)C1=NNC(C(=O)O)=NN1`: the TGI in [2], in assay [3], in [9], in [4], in assay [13] and in assay [6] was more than 100 µM throughout. Moreover, in [7], the TGI is more than 100 µM.
Regarding `CCCCCCCCCCCCCCCCOCC(COP(=O)([O-])OCC[n+]1ccc(N(C)C)cc1)OCC` (centres undefined), the TGI was determined as 36.1 µM in assay [8]; 32.6 µM in assay [9]; 31.6 µM in assay [10]; 26.3 µM in [4]; 23.9 µM in assay [5]; 3.79 µM in assay [7].
In the case of `COc1c(Cl)cc(S(=O)O)cc1Cl`, the TGI in [1], in assay [12], in [3], in [4] and in assay [7] was more than 100 µM throughout.
With `Fc1ccc(-c2nnc3sc(COc4ccccc4Cl)nn23)cc1Cl`, the GI50 was 34.6 µM in assay [1]; 30.4 µM in assay [9]; 49.5 µM in [10]; 41.4 µM in assay [4]; 23.3 µM in assay [5]; 30.7 µM in [11]. Besides, in [7], the GI50 was 30.4 µM. Besides, the TGI was 93.6 µM in [1]; more than 100 µM in assay [9]; more than 100 µM in [10]; more than 100 µM in [4]; 76.4 µM in assay [5]; more than 100 µM in [11]. In assay [7], the TGI was more than 100 µM.
Take `O=C1c2ccccc2C(=O)c2c1ccc(C(=O)O)c2-c1ccc2ccccc2c1`: the TGI in [1] came out at 85.5 µM; in assay [8], 81.8 µM; in assay [10] it was 60 µM; in assay [4], 50.4 µM; in [5] it was 51.6 µM; in [11] it was 72.4 µM. The same molecule had a TGI in assay [7] of 61.2 µM.
